This note sets out measurements from EP4477653A1 (Perha Pharmaceuticals, priority 2023, dated 2024).

SMILES strings stand for the structures.

The first experiment has as its target T1, human recombinant A3AR (expressed in HEK-293 cells) (Homo sapiens, UniProt P0DMS8).
T1 construct: host or cells: HEK-293 cells
T1 sequence (P0DMS8 1-318): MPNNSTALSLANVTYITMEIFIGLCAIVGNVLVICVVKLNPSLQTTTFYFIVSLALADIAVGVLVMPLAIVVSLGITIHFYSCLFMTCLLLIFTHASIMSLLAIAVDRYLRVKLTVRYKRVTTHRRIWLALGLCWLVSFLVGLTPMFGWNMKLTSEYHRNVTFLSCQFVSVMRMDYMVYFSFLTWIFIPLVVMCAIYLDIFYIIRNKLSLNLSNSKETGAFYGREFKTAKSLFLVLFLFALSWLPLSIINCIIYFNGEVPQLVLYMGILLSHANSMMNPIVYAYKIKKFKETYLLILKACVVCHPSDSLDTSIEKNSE
The experiment is described as follows: Adenosine receptors antagonism assay (Eurofins), [125I]-AB-MECA radioligand competition. It is filed as binding. The note with it: [125I]-AB-MECA 0.15 nM, r.t., 120 min; IC50 from dose-response curves; read-out: Potency Class A3AR.
Take `CC(C)c1nnc2c(NCc3ccccc3)cc(N[C@@H]3CCCOC3)nn12` [compound 21, N8-benzyl-3-isopropyl-N6-[(3R)-tetrahydropyran-3-yl]-[1,2,4]triazolo[4,3-b]pyridazine-6,8-diamine]: the IC50 is 10 to 100 nM. On to `CCC(CC)Nc1cc(NC2CCc3ccccc32)c2nnc(C(C)C)n2n1` (racemic) [compound 81, N6-(1-ethylpropyl)-N8-indan-1-yl-3-isopropyl-[1,2,4]triazolo[4,3-b]pyridazine-6,8-diamine], for which the IC50 lay in the range of 10 to 100 nM.

In the case of `CCC(CC)Nc1cc(Nc2cccnc2OC)c2nnc(C(C)C)n2n1` [compound 158, 3-isopropyl-N8-(2-methoxypyridin-3-yl)-N6-(pentan-3-yl)-[1,2,4]triazolo[4,3-b]pyridazine-6,8-diamine], the IC50 is under 1 nM. With `c1ccc(CNc2cc(NC3CC3)nn3c(C4CC4)nnc23)nc1` [compound 197, N6,3-dicyclopropyl-N8-(pyridin-2-ylmethyl)-[1,2,4]triazolo[4,3-b]pyridazine-6,8-diamine], the IC50 was in the range of 10 to 100 nM. The same measure, in the same setting: the figure for `CCC(CC)Nc1cc(NCCc2cccnc2)c2nnc(C3CC3)n2n1` [compound 87, 3-cyclopropyl-N6-(1-ethylpropyl)-N8-[2-(3-pyridyl)ethyl]-[1,2,4]triazolo[4,3-b]pyridazine-6,8-diamine] is under 1 nM; for `CCC(CC)Nc1cc(NCCc2ccncc2)c2nnc(C3CC3)n2n1` [compound 88, 3-cyclopropyl-N6-(1-ethylpropyl)-N8-[2-(4-pyridyl)ethyl]-[1,2,4]triazolo[4,3-b]pyridazine-6,8-diamine] it is 1 to 10 nM; for `CC(C)Nc1cc(NCc2ccccn2)c2nnc(C3CC3)n2n1` [compound 192, 3-cyclopropyl-N6-isopropyl-N8-(pyridin-2-ylmethyl)-[1,2,4]triazolo[4,3-b]pyridazine-6,8-diamine] it is 1 to 10 nM. Same read-out and setting: the figure for `CC(C)c1nnc2c(NCc3ccc(-c4ccncc4)cc3)cc(N[C@H](CO)[C@@H](C)O)nn12` [compound 108, (2R,3R)-2-[[3-isopropyl-8-[[4-(4-pyridyl)phenyl]methylamino]-[1,2,4]triazolo[4,3-b]pyridazin-6-yl]amino]butane-1,3-diol] is 100 to 1000 nM; for `CCC(CC)Nc1cc(NCc2ccccn2)c2nnc(C3CC3)n2n1` [compound 62, 3-cyclopropyl-N6-(1-ethylpropyl)-N8-(2-pyridylmethyl)-[1,2,4]triazolo[4,3-b]pyridazine-6,8-diamine] it is 1 to 10 nM. On the same count and under the same terms, the figure for `COCCCNc1cc(NCc2ccccc2)c2nnc(C)n2n1` [compound 32, N8-benzyl-N6-(3-methoxypropyl)-3-methyl-[1,2,4]triazolo[4,3-b]pyridazine-6,8-diamine] is 100 to 1000 nM; for `COCCNc1cc(NCCOC)c2nnc(C(C)C)n2n1` [compound 112, 3-isopropyl-N6,N8-bis(2-methoxyethyl)-[1,2,4]triazolo[4,3-b]pyridazine-6,8-diamine] it is 100 to 1000 nM; for `CC(C)c1nnc2c(NCc3ccccc3O)cc(N[C@@H]3CCCOC3)nn12` [compound 43, 2-[[[3-isopropyl-6-[[(3R)-tetrahydropyran-3-yl]amino]-[1,2,4]triazolo[4,3-b]pyridazin-8-yl]amino]methyl]phenol] it is 10 to 100 nM. On to `CCC(CC)Nc1cc(NCc2cccnn2)c2nnc(C3CC3)n2n1` [compound 216, 3-cyclopropyl-N6-(pentan-3-yl)-N8-(pyridazin-3-ylmethyl)-[1,2,4]triazolo[4,3-b]pyridazine-6,8-diamine], for which the IC50 lay in the range of 1 to 10 nM. On the same count and under the same terms, for `CCC(CC)Nc1cc(NCc2ccncc2)c2nnc(C(C)C)n2n1` [compound 49, N6-(1-ethylpropyl)-3-isopropyl-N8-(4-pyridylmethyl)-[1,2,4]triazolo[4,3-b]pyridazine-6,8-diamine] the value was 1 to 10 nM; for `CCCCNc1cc(NCc2ccccn2)c2nnc(C3CC3)n2n1` [compound 191, N6-butyl-3-cyclopropyl-N8-(pyridin-2-ylmethyl)-[1,2,4]triazolo[4,3-b]pyridazine-6,8-diamine], 1 to 10 nM. On the same count and under the same terms, the figure for `CC(C)c1nnc2c(NCc3ccccc3)cc(NCCC(=O)N(C)C)nn12` [compound 27, 3-[[8-(benzylamino)-3-isopropyl-[1,2,4]triazolo[4,3-b]pyridazin-6-yl]amino]-N,N-dimethyl-propanamide] is 100 to 1000 nM; for `COCCCNc1cc(NCCCOC)c2nnc(C(F)(F)F)n2n1` [compound 111, N6,N8-bis(3-methoxypropyl)-3-(trifluoromethyl)-[1,2,4]triazolo[4,3-b]pyridazine-6,8-diamine] it is 10 to 100 nM; for `c1ccc(CNc2cc(NC34CC5CC(CC(C5)C3)C4)nn3c(C4CC4)nnc23)nc1` [compound 202, N6-((3s,5s,7s)-adamantan-1-yl)-3-cyclopropyl-N8-(pyridin-2-ylmethyl)-[1,2,4]triazolo[4,3-b]pyridazine-6,8-diamine] it is 1 to 10 nM.

`COCCCCCNc1cc(NCc2ccccc2)c2nnc(C(C)C)n2n1` [compound 16, N8-benzyl-3-isopropyl-N6-(5-methoxypentyl)-[1,2,4]triazolo[4,3-b]pyridazine-6,8-diamine]: the IC50 lay in the range of 100 to 1000 nM. On to `CCC(CC)Nc1cc(Nc2cc(OC)ccn2)c2nnc(C(C)C)n2n1` [compound 156, 3-isopropyl-N8-(4-methoxypyridin-2-yl)-N6-(pentan-3-yl)-[1,2,4]triazolo[4,3-b]pyridazine-6,8-diamine], for which the IC50 lay within 1 to 10 nM. For `CC(C)c1nnc2c(NCc3ccccc3)cc(NCCO)nn12` [compound 11, 2-[[8-(benzylamino)-3-isopropyl-[1,2,4]triazolo[4,3-b]pyridazin-6-yl]amino]ethanol], the IC50 lay in the range of 100 to 1000 nM. In the case of `CCC(CC)Nc1cc(NCc2ccccn2)c2nnc(C)n2n1` [compound 58, N6-(1-ethylpropyl)-3-methyl-N8-(2-pyridylmethyl)-[1,2,4]triazolo[4,3-b]pyridazine-6,8-diamine], the IC50 is 10 to 100 nM. On the same count and under the same terms, the figure for `CC[C@@H](CO)Nc1cc(NCc2ccc(Br)cc2)c2nnc(C(C)C)n2n1` [compound 101, (2S)-2-[[8-[(4-bromophenyl)methylamino]-3-isopropyl-[1,2,4]triazolo[4,3-b]pyridazin-6-yl]amino]butan-1-o1] is 10 to 100 nM; for `CCC(CC)Nc1cc(Nc2ccncn2)c2nnc(C3CC3)n2n1` [compound 177, 3-cyclopropyl-N6-(pentan-3-yl)-N8-(pyrimidin-4-yl)-[1,2,4]triazolo[4,3-b]pyridazine-6,8-diamine] it is under 1 nM; for `CC(C)c1nnc2c(NCCc3ccccn3)cc(NC3CCCC3)nn12` [compound 165, N6-cyclopentyl-3-isopropyl-N8-[2-(2-pyridyl)ethyl]-[1,2,4]triazolo[4,3-b]pyridazine-6,8-diamine] it is 1 to 10 nM. On the same count and under the same terms, for `COCCNc1cc(NCc2ccccc2)c2nnc(C(C)C)n2n1` [compound 12, N8-benzyl-3-isopropyl-N6-(2-methoxyethyl)-[1,2,4]triazolo[4,3-b]pyridazine-6,8-diamine] the value was 100 to 1000 nM; for `CCC(CC)Nc1cc(NCc2cccc(N)c2)c2nnc(C(C)C)n2n1` [compound 76, N8-[(3-aminophenyl)methyl]-N6-(1-ethylpropyl)-3-isopropyl-[1,2,4]triazolo[4,3-b]pyridazine-6,8-diamine], 1 to 10 nM. Still for that read-out and setting: the figure for `CC(C)c1nnc2c(NCc3ccccc3O)cc(NC3CCOCC3)nn12` [compound 44, 2-[[[3-isopropyl-6-(tetrahydropyran-4-ylamino)-[1,2,4]triazolo[4,3-b]pyridazin-8-yl]amino]methyl]phenol] is 10 to 100 nM. For the compound `CC[C@H](CO)Nc1nn2c(C(C)C)nnc2c(NCc2ccccc2)c1C` [compound 115, (2R)-2-[[8-(benzylamino)-3-isopropyl-7-methyl-[1,2,4]triazolo[4,3-b]pyridazin-6-yl]amino]butan-1-ol], the IC50 lay within 100 to 1000 nM. `CCC(CC)Nc1cc(Nc2ccncc2)c2nnc(C3CC3)n2n1` [compound 174, 3-cyclopropyl-N6-(1-ethylpropyl)-N8-(4-pyridyl)-[1,2,4]triazolo[4,3-b]pyridazine-6,8-diamine]: the IC50 is under 1 nM. Same read-out and setting: the figure for `CCC(CC)Nc1cc(Nc2cncnc2)c2nnc(C3CC3)n2n1` [compound 178, 3-cyclopropyl-N6-(1-ethylpropyl)-N8-pyrimidin-5-yl-[1,2,4]triazolo[4,3-b]pyridazine-6,8-diamine] is under 1 nM.

As to `CC(C)c1nnc2c(NCc3ccccc3)cc(NC(CO)CO)nn12` [compound 3, 2-[[8-(benzylamino)-3-isopropyl-[1,2,4]triazolo[4,3-b]pyridazin-6-yl]amino]propane-1,3-diol], the IC50 was in the range of 100 to 1000 nM. On the same count and under the same terms, for `CCC(CC)Nc1cc(NCc2ccccn2)c2nnc(C(C)(C)C)n2n1` [compound 61, 3-tert-butyl-N6-(1-ethylpropyl)-N8-(2-pyridylmethyl)-[1,2,4]triazolo[4,3-b]pyridazine-6,8-diamine] the value was 10 to 100 nM; for `CCC(CC)Nc1cc(NCCCc2ccccc2)c2nnc(C(C)C)n2n1` [compound 170, N6-(1-ethylpropyl)-3-isopropyl-N8-(3-phenylpropyl)-[1,2,4]triazolo[4,3-b]pyridazine-6,8-diamine], 1 to 10 nM.

Still in this experiment, the particulars now being: read-out: Potency Class A3AR; [125I]-AB-MECA 0.15 nM, r.t., 120 min; IC50 from dose-response curves.
In the case of `CCC(CC)Nc1cc(NC(=O)Cc2cccnc2)c2nnc(C(C)C)n2n1` [compound 168, N-[6-(1-ethylpropylamino)-3-isopropyl-[1.2.4]triazolo[4,3-b]pyridazin-8-yl]-2-(3-pyridyl)acetamide], the IC50 was under 1 nM.
